Test results published in US20190307818A1, “NOVEL ANTIMICROBIAL COMPOSITIONS AND METHODS OF USE” (priority 2016, published 2019).

Key:
RhlR = biological target: T1, RhlR (Pseudomonas aeruginosa, UniProt P54292); test: Two plasmid E. coli RhlR reporter (luciferase); type: cell-based, P. aeruginosa; conditions: for remaining activity at 100 µM: read-out: Percent Activity (RhlR reporter); for Percent Activity (RhlR reporter): inhibitor at 100 μM, relative to wild-type (100%)
T1 construct: expressed in transfected cells; host or cells: E. coli TOP10 carrying pBAD-A 6xHIS-rhlR and pCS26 prhlA-luxCDABE
From the text: (§1) A two plasmid E. coli reporter system was constructed, in which LasR or RhlR was expressed under an arabinose inducible promoter (e.g., LasR or RhlR was cloned into a pBAD-A vector and expressed upon addition of arabinose) in the presence of a LasR-dependent or RhlR-dependent promoter fused to luciferase (e.g., cloned into a pCS26 vector). Upon the addition of arabinose and in the presence of AI, LasR or RhlR were expressed, formed a complex with the cognate AI, underwent dimerization, and activated transcription of the reporter construct. All potential inhibitors were tested at 100 μM. The percent activity was reported relative to wild-type (100%).
(§2) A sample experimental protocol for the RhlR reporter (see, e.g., Table 5A2) or for the LasR reporter (see, e.g., Table 5A1).
For the RhlR reporter, strains were re-streaked on LB+appropriate antibiotic before each experiment and grown overnight at 37° C. Three colonies were picked and a 3 mL overnight culture in LB+appropriate antibiotic was started. The culture was grown overnight at 37° C. The overnight culture was back-diluted 1:1000 into fresh LB+appropriate antibiotic in an appropriate volume, depending on the number of plates being screened. Each well in a 384 well plate received about 20 μL of culture. An additional 25 mL of culture was reserved for priming the plate filler. The culture was grown at 37° C. until OD600˜0.5, which took about 4 hrs. A 384-well plate was prepared. Stock concentrations of molecules (e.g., small molecule inhibitors) were 10 mM.
For a 10-point dose response for the RhlR reporter, a 1:3 dilution of molecule:DMSO (333 μL of stock molecule, 667 μL of DMSO using a 1 mL pipetteman) was used for accurate dispensing by the robot dispenser. Upon a prompt by the software, the appropriate concentration of each molecule was added. Each well was normalized with a DMSO standard to bring the total % volume of DMSO up to 1% using the robot. Plates were set aside with dispensed drugs until the cells were ready. Once the cells reached an OD600 of 0.5, an appropriate amount of cell culture was dispensed for screening into an Erlenmeyer flask. (Extra culture was saved for a negative control.) Arabinose was added to 0.1% final concentration (1:1000 dilution from stock solution), and AI was added to 10 μM (ED75) from a 10 mM stock. The components of the flask were mixed together by swirling. As mentioned previously, other concentrations of AIs may be suitable, e.g., the concentrations may be in the range of 2 uM to 100 uM, from 10 uM to 100 uM or from 2 uM to 10 uM. In some embodiments, 2 nM of 3-O—C12-HSL (for LasR) and 10 uM of C4-HSL (for RhlR) were used.
(§3) A clean plate was filled with water, 70% ethanol, LB, and primed with cultured cells to ensure that initial dispensing led to the appropriate volume of cells being added to the wells. 20 μL of this solution was dispensed into appropriate wells in a 384-well plate that contained small molecule antagonists. 20 μL of this solution was dispensed into wells intended for a positive control that contain only DMSO. To the culture that was saved for negative control, arabinose was added to 0.1%. An equal volume of DMSO was added to the culture, relative to the amount of AI added to the other culture. 20 μL of culture was dispensed into wells intended for a negative control that contained only DMSO and no small molecule QS inhibitors. Plates were incubated at 30° C. in the plate shaker. Plates were read using a 384 LUM/OD 600 setting on the plate reader after 4 hours of induction.
For data analysis, the average and standard deviation for each of the control groups were determined. In a screen, for each data point, the number of standard deviations from the mean was determined to determine if the inhibitor was a “hit”. In a dose response curve, for each data point, the percent inhibition was determined: 1−(X/M), where X=single data point and M=is the mean of the AI only control group. […]

LasR and RhlR = test: Receptor specific reporter assays for LasR and RhlR activity (stated in words); type: cell-based, P. aeruginosa
From the text: wherein R may be H or OH, and two or more of the R substituents of a given compound are OH; R′ is H or OH; and R″ is H or OH. […] A variety of compounds were obtained and tested for activity (e.g., inhibition of receptor specific reporter assays for LasR and RhlR activity).
as §1

LasR [1] = biological target: T2, LasR (Pseudomonas aeruginosa, UniProt P25084); test: 10-point autoinducer dose response on LasR reporter with QS inhibitor (competition); type: cell-based, P. aeruginosa; conditions: inhibitor at 100 μM; increasing concentrations of AI
T2 construct: expressed in transfected cells; host or cells: E. coli TOP10 carrying pBAD-A 6xHIS-lasR and pCS26 plasB-luxCDABE
Protocol: FIG. 4. QS inhibitors bind non-competitively to LasR. A 10-point dose response curve with increasing concentrations of autoinducer 3-O—C12-HSL (AI) was generated for a variety of QS small molecule inhibitors. In this figure, curve C12 (filled circle) corresponds to the absence of inhibitor. […] Instead, the inhibitors bind elsewhere on LasR to prevent LasR-dependent transcription.
Using known molecular biology techniques, assays were performed to determine whether binding of the small molecule QS inhibitors and the AIs occurred by a competitive or by another inhibitory mechanism (see, e.g., FIG. 4).
Thus, a 10-point dose response curve with concentrations of AI ranging from 10 pM to 5 nM was generated for a variety of QS small molecule inhibitors. Curve C12 (dotted filled line) corresponds to the absence of inhibitor. […] Instead, the inhibitors bind elsewhere on LasR to prevent LasR-dependent transcription.

LasR [2] = biological target: T2, LasR; test: Two plasmid E. coli LasR reporter (luciferase); type: cell-based, P. aeruginosa; conditions: for remaining activity at 100 µM: read-out: Percent Activity (LasR reporter); for Percent Activity (LasR reporter): inhibitor at 100 μM, relative to wild-type (100%)
From the text: as §1, §2, §3
For data analysis, the average and standard deviation for each of the control groups were determined. In a screen, for each data point, the number of standard deviations from the mean was determined to determine if the inhibitor was a “hit”. In a dose response curve, for each data point, the percent inhibition was determined: 1−(X/M), where X=single data point and M=is the mean of the AI only control group. The dose response curve was then plotted as a function of % inhibition (y) v. [inhibitor] on a log scale (x).

[3] = system: Wild-type P. aeruginosa pyocyanin production; test: Pyocyanin virulence factor production; type: cell-based; conditions: 100 μM overnight, back diluted, grown 18 hrs with inhibitor
Protocol: FIG. 6. QS inhibitors reduce the level of virulence factor production in P. aeruginosa. The ability of the small molecule inhibitors to reduce virulence factor production by monitoring pyocyanin production was assessed.
The ability of the small molecule QS inhibitors to reduce virulence factor production by monitoring production of pyocyanin as a representative virulence factor was assessed. Wild-type P. aeruginosa was incubated with the indicated molecules at 100 μM overnight, back diluted, and grown for 18 hrs in the presence of QS inhibitor.
By varying the concentration of QS inhibitors, dose dependence curves were generated.

T2 sequence (P25084 whole entry): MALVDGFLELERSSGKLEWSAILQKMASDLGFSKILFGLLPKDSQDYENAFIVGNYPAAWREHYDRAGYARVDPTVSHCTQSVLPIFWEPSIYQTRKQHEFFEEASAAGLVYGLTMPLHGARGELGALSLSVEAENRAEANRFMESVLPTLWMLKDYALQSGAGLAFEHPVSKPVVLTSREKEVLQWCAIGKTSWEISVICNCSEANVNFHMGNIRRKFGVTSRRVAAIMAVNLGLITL
T1 sequence (P54292 whole entry): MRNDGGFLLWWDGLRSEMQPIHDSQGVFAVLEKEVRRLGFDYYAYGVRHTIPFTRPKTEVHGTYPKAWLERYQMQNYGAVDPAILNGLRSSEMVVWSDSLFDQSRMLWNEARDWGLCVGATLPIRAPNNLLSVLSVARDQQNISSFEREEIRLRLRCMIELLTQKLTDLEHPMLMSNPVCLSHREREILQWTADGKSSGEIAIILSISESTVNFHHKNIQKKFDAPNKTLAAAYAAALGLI

Structure (SMILES): O=C(CCc1ccc(O)cc1)c1c(O)cc(O)cc1O [Molecule 1, Phloretin]
- remaining activity at 100 µM (RhlR): 68.4%
- activity (inhibition of receptor specific reporter assays for LasR and RhlR activity) (LasR and RhlR): inhibit both LasR and RhlR
- competition with autoinducer 3-O—C12-HSL for LasR (LasR [1]): did not compete
- remaining activity at 100 µM (LasR [2]): 24.1%
- pyocyanin production [3]: inhibit pyocyanin to varying degrees

Structure (SMILES): O=c1cc(-c2ccccc2)oc2cc(O)cc(O)c12 [Molecule 3, Chrysin]
- remaining activity at 100 µM (RhlR): 39.2%
- activity (inhibition of receptor specific reporter assays for LasR and RhlR activity) (LasR and RhlR): inhibit both LasR and RhlR
- competition with autoinducer 3-O—C12-HSL for LasR (LasR [1]): did not compete
- remaining activity at 100 µM (LasR [2]): 53.1%
- pyocyanin production [3]: inhibit pyocyanin to varying degrees

Structure (SMILES): O=C1CC(c2ccc(O)cc2)Oc2cc(O)cc(O)c21 (stereo not shown) [Molecule 4, Narigenin]
- activity (inhibition of receptor specific reporter assays for LasR and RhlR activity) (LasR and RhlR): active
- pyocyanin production [3]: inhibit pyocyanin to varying degrees

Structure (SMILES): O=C1CC(c2ccc(O)cc2)Oc2cc(O)cc(O)c21 (stereo not shown) [Molecule 4]
- remaining activity at 100 µM (RhlR): 60.5%
- remaining activity at 100 µM (LasR [2]): 63.3%

Structure (SMILES): O=c1cc(-c2ccc(O)cc2)oc2cc(O)cc(O)c12 [Molecule 43]
- remaining activity at 100 µM (RhlR): 84.5%
- remaining activity at 100 µM (LasR [2]): 82.4%

Structure (SMILES): O=c1cc(-c2ccccc2)oc2cccc(O)c12 [Molecule 44]
- Percent Activity (RhlR reporter) (RhlR): Inactive
- Percent Activity (LasR reporter) (LasR [2]): Inactive

Structure (SMILES): O=c1cc(-c2ccccc2)oc2cc(O)ccc12 [Molecule 45]
- Percent Activity (RhlR reporter) (RhlR): Inactive
- Percent Activity (LasR reporter) (LasR [2]): Inactive

Structure (SMILES): O=c1c(O)c(-c2ccc(O)c(O)c2)oc2cc(O)cc(O)c12 [Molecule 48, Quercetin]
- remaining activity at 100 µM (RhlR): 40.2%
- activity (inhibition of receptor specific reporter assays for LasR and RhlR activity) (LasR and RhlR): inhibit both LasR and RhlR
- competition with autoinducer 3-O—C12-HSL for LasR (LasR [1]): did not compete
- remaining activity at 100 µM (LasR [2]): 44.4%
- pyocyanin production [3]: inhibit pyocyanin to varying degrees

Structure (SMILES): COc1cc(OC)c2c(=O)cc(-c3ccccc3)oc2c1 [Molecule 49]
- Percent Activity (RhlR reporter) (RhlR): Inactive
- Percent Activity (LasR reporter) (LasR [2]): Inactive

Structure (SMILES): O=c1cc(-c2ccccc2)oc2ccc(O)cc12 [Molecule 50]
- Percent Activity (RhlR reporter) (RhlR): Inactive
- Percent Activity (LasR reporter) (LasR [2]): Inactive

Structure (SMILES): COc1cc(OC)c2c(=O)cc(-c3ccc(O)cc3)oc2c1 [Molecule 52]
- Percent Activity (RhlR reporter) (RhlR): Inactive
- Percent Activity (LasR reporter) (LasR [2]): Inactive

Structure (SMILES): O=c1cc(-c2ccccc2)oc2ccc(O)c(O)c12 [Molecule 53]
- remaining activity at 100 µM (RhlR): 31.8%
- remaining activity at 100 µM (LasR [2]): 16.7%

Structure (SMILES): O=c1cc(-c2ccccc2)oc2c(O)c(O)ccc12 [Molecule 54]
- remaining activity at 100 µM (RhlR): 54.5%
- remaining activity at 100 µM (LasR [2]): 60.3%

Structure (SMILES): O=c1c(O)c(-c2ccccc2)oc2cc(O)cc(O)c12 [Molecule 55]
- Percent Activity (RhlR reporter) (RhlR): Inactive
- Percent Activity (LasR reporter) (LasR [2]): Inactive
